Results from patent publication US20100129470A1, “METHOD OF TREATING BRAIN CANCER” (Myriad Pharmaceuticals, Incorporated, priority 2007, published 2010).
Entries after “also recorded” stand apart in the source; their conditions may differ. Counter-ions that a name gives are not always drawn.

System: Subjects with Refractory Solid Tumors
Assay: Phase I clinical trial: open-label, dose-escalating, multiple-dose study of weekly intravenous administration
Type: in vivo
Details: human subjects
Protocol: An open-label, dose-escalating, multiple-dose study to define the safety, tolerability and phamacokinetics of weekly intravenous administration of (4-Methoxy-phenyl)-methyl-(2-methyl-quinazolin-4-yl)-amine hydrochloride was performed. A dosing schedule (each 4 week cycle) was performed for (4-Methoxy-phenyl)-methyl-(2-methyl-quinazolin-4-yl)-amine hydrochloride weekly for 3 weeks with no infusion on the fourth week of each cycle. Subjects with refractory solid tumors were enrolled in cohorts of 3. During Cycle 1, subjects were hospitalized during each infusion of (4-Methoxy-phenyl)-methyl-(2-methyl-quinazolin-4-yl)-amine hydrochloride and remained for observation and safety evaluation for approximately 24 hours following the end of the infusion. All subject had continuous telemetry for 2 hours prior to infusion, for 1-2 hour infusion and for 3 hours after the end of the infusion. Any clinically significant electrocardiographic (ECG) wave form abnormality was recorded and prolongation of the monitoring period extended at the discretion of the principal investigator.
Electrocardiograms were obtrained prior to starting the infusion and within 30 minutes of the end of infusion for each infusino of the first cycle. Electrocardiograms on Day 1 were obtained in triplicate 5 minutes apart.
Neurocognitive assessments were made by administration of the Mini-Mental State Examination (MMSE), the Hopkins Verbal Learning and timed Grooved Pegboard tests before administration of the intravenous infusion and approximately 24 hours of the infusion at each weekly administration of the first cycle.
On days 1, 8, and 15 of each cycle, vital signs were obtained prior to the first dose, at 15, 30, and 60 minutes after the initiation of the infusion, and at 0.5, 1, 1.5, 2, and 4 hours after the end of the intravenous infusion. Vital signs at all time points beyond the start of the intravenous infusion included heart rate, blood pressure and respirations. Temperature ws measured at the end of the infusion and 4 hours later.
Individual subjects were allowed to continue on repeated weekly×3 administrations every 28 days with no dose increase provided there was no unacceptable toxicity or disease progression.
Tumor response was evaluated by response evaluation criteria in solid tumors (RECIST) criteria. To prevent sever hypersensitivity reactions due to Cremophor® EL, subjects were premedicated with oral dexamethasone (20 mg) administered approximately 12 and 6 hours before the intrvenous infusion with (4-Methoxy-phenyl)-methyl-(2-methyl-quinazolin-4-yl)-amine hydrochloride, diphenhydramine (50 mg) or its equivalent administered intravenously 30-60 minutes before (4-Methoxy-phenyl)-methyl-(2-methyl-quinazolin-4-yl)-amine hydrochloride, and cimetidine (300 mg) or ranitidine (50 mg) administered intravenously 30-60 minutes before (4-Methoxy-phenyl)-methyl-(2-methyl-quinazolin-4-yl)-amine hydrochloride.

[1] = weekly i.v. infusion, 0.3-3.3 mg/m^2

## COc1ccc(N(C)c2nc(C)nc3ccccc23)cc1 [(4-Methoxy-phenyl)-methyl-(2-methyl-quinazolin-4-yl)-amine hydrochloride]
ECG, weekly i.v. infusion, 0.3-3.3 mg/m^2
  effects on cardiac conduction (PR, QRS or QTc): no significant effects
Weekly i.v. administration, various dosages, hydrochloride
  safety and tolerability: safe and well tolerated; also recorded: safe and tolerable
Weekly i.v. infusion for 3 weeks of each 4 week cycle, 0.3-3.3 mg/m^2
  peripheral cytotoxicity: no evidence of cytotoxity peripherally
[1]
  bradycardia: occasional episodes of bradycardia
  dose limiting toxicity: vascular in nature, manifested by an acute coronary syndrome
  intratumor bleeding: incidences of intratumor bleeding
  systolic blood pressure: dose-related increase
